Assay results published in US20210315840A1, “SOLID ORAL DOSAGE FORMS OF KETAMINE DERIVATIVES” (priority 2017, published 2021).

Experiments:
[1] = pKa by potentiometric (pH-metric) titration; type: physicochemical; details: methanol-water co-solvent, Yasuda-Shedlovsky extrapolation
Experimental: The sample pKa was determined using the potentiometric (pH-metric) technique following attempts to determine pKa via UV spectroscopic techniques.
UV-metric: The sample was initially titrated in a fast-UV triple titration between pH 2.0-12.0 at concentrations of 31-19 μM, under aqueous conditions. No evidence of any sample ionisation within the investigated pH range was inferred from the spectroscopic data obtained, meaning that any ionisable groups were remote from chromophores. Therefore, the sample was analysed using the pH-metric method.
pH-metric: The sample was subsequently titrated using the potentiometric technique to determine the non-UV active pKas. A triple titration was carried out under methanol-water co-solvent conditions from pH 2.0-12.0 at concentrations of 0.9-0.6 mM (the methanol mixing ratio varied from 53.0 to 33.3% w/w).

5-HT1B = 5-HT1B (Homo sapiens, UniProt P28222); experiment: Binding assay 5-HT1B
Description: (§1) 2R,6R-hydroxynorketamine was investigated for binding to monoamine oxidases A and B, monoamine transporters, as well as a variety of 5HT receptors.

5-HT2B = 5-HT2B (Homo sapiens, UniProt P41595); experiment: Binding assay 5-HT2B
Description: as §1

[2] = molecular target: norepinephrine transporter (Homo sapiens, UniProt P23975); experiment: Binding assay norepinephrine transporter
Description: as §1

dopamine transporter = dopamine transporter (Homo sapiens, UniProt Q01959); experiment: Binding assay dopamine transporter
Description: as §1

5-HT1, Non-Selective = experiment: Binding assay 5-HT1, Non-Selective
Description: as §1
An absence of interaction between 2R,6R-hydroxynorketamine and 5HT1 receptors is also of note. Rare postmarketing reports have described patients with weakness, hyperreflexia, and incoordination following the use of an SSRI and the 5HT1 agonist, sumatriptan. The possibility of such interactions should also be considered if other 5HT1 agonists are to be used in combination with SSRIs.

MAO-B = MAO-B (Homo sapiens, UniProt P27338); experiment: Binding assay MAO-B
Description: as §1

CYP2C8 = molecular target: T1, CYP2C8 (Homo sapiens, UniProt P10632); experiment: CYP inhibition assay CYP2C8; type: in vitro ADME
T1 sequence (P10632 1-490): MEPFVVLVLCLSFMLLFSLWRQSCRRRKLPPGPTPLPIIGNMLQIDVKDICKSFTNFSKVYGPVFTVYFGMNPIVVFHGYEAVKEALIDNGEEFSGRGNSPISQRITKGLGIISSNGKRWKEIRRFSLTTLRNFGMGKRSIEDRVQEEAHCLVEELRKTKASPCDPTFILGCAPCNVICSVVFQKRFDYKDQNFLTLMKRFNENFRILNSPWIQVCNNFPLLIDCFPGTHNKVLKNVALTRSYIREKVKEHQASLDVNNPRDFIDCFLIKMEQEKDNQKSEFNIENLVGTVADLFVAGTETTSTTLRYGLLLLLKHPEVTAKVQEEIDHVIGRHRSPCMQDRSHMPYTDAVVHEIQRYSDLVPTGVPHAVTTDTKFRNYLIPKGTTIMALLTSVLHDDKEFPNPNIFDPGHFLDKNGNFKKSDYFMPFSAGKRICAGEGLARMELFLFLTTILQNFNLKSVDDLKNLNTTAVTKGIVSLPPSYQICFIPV
Description: (§2) Cytochrome P450s (CYPs) are a family of enzymes that play a primary role in the metabolism of a wide variety of drugs. 2R,6R-hydroxynorketamine was investigated for its potential to inhibit the action of 7 key CYP enzymes using an inhibition assay measuring reduction in the formation of metabolites compared to control.

CYP2B6 = molecular target: T2, CYP2B6 (Homo sapiens, UniProt P20813); experiment: CYP inhibition assay CYP2B6; type: in vitro ADME
T2 sequence (P20813 1-491): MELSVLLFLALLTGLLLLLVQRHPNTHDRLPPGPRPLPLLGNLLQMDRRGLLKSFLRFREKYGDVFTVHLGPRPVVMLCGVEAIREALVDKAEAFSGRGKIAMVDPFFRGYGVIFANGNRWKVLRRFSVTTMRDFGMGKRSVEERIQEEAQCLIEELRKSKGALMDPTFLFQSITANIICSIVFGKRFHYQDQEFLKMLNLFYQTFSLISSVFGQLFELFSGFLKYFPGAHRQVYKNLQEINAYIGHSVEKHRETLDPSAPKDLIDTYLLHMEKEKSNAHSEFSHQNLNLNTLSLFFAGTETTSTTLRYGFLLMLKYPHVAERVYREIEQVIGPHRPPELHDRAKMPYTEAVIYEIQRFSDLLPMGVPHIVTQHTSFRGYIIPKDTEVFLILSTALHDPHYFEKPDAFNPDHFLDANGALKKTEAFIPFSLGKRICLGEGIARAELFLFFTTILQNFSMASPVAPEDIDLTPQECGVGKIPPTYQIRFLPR
Description: as §2

CYP3A4 = CYP3A4 (Homo sapiens, UniProt P08684); experiment: CYP inhibition assay CYP3A4, substrate testosterone; type: in vitro ADME; details: for % Inhibition: Substrate = testosterone
Description: as §2

Metabolite profiling = type: in vitro ADME
[3] = system: α-amino-3-hydroxy-5-methyl-4-isoxazolepropionic acid receptor (AMPAR)-mediated currents; experiment: In vitro electrophysiology, field excitatory postsynaptic potentials; details: estimated
Experimental: The free (unbound) concentration of 2R,6R-hydroxynorketamine producing pharmacodynamics activity in the brain is estimated to be approximately 10 μM.

[4] = system: cryopreserved hepatocytes; experiment: Hepatocyte stability assay, rat; details: 3 μM
Experimental: (§3) Test compound (3 μM) was incubated with cryopreserved hepatocytes in suspension. Samples are removed at 6 time points over the course of 120 minutes and analysed by LC-MS/MS.

[5] = system: cryopreserved hepatocytes; experiment: Hepatocyte stability assay, human
Experimental: as §3

CYP3A4, sequence (P08684 whole entry): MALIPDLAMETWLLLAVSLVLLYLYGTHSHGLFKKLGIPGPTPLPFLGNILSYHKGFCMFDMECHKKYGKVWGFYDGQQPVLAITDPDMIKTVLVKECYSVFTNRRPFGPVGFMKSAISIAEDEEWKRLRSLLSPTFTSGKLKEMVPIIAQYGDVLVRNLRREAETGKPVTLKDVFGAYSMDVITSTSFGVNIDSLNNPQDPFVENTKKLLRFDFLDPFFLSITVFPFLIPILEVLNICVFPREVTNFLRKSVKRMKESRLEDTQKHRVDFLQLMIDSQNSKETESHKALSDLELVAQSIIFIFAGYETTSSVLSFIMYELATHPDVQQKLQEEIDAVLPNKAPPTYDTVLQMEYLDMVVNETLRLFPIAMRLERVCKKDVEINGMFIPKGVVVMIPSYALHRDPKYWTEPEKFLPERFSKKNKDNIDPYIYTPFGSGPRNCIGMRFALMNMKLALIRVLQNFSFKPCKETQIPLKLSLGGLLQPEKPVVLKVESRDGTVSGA
5-HT1B, sequence (P28222 whole entry, species assumed): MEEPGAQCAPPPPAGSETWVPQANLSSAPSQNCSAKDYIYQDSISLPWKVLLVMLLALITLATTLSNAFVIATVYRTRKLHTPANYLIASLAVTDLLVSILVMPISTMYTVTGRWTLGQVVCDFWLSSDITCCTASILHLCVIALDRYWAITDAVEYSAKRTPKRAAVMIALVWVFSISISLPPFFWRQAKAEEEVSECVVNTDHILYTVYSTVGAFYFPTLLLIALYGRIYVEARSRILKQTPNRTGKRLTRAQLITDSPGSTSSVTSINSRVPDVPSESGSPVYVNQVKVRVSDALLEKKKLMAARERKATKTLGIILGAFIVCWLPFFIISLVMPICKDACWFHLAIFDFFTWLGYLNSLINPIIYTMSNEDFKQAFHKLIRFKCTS
5-HT2B, sequence (P41595 whole entry, species assumed): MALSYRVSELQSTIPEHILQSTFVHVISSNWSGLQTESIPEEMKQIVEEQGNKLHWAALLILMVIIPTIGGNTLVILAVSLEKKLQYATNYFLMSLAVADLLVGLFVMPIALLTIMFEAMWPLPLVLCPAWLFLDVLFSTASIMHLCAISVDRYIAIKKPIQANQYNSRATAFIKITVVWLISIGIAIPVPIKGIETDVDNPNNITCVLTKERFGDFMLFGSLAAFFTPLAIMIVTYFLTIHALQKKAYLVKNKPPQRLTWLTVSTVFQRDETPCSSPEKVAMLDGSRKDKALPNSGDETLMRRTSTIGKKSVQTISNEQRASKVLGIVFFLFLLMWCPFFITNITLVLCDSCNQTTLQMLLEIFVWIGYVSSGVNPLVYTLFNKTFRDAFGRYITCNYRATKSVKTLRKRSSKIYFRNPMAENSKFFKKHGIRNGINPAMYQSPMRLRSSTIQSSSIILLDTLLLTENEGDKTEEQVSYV
MAO-B, sequence (P27338 whole entry, species assumed): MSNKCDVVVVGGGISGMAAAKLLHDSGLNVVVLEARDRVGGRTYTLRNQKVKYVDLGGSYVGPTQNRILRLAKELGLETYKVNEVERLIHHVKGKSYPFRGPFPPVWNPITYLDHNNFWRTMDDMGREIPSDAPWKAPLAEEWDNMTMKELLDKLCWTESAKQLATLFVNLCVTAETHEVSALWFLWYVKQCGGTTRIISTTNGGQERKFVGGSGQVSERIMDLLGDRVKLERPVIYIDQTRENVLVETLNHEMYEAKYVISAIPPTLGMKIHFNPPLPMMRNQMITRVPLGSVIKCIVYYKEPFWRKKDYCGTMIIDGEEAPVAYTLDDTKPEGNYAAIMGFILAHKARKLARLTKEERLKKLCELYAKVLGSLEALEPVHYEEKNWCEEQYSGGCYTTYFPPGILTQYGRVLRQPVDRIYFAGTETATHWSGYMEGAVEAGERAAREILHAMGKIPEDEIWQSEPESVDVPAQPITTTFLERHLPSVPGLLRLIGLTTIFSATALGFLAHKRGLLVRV
norepinephrine transporter, sequence (P23975 whole entry, species assumed): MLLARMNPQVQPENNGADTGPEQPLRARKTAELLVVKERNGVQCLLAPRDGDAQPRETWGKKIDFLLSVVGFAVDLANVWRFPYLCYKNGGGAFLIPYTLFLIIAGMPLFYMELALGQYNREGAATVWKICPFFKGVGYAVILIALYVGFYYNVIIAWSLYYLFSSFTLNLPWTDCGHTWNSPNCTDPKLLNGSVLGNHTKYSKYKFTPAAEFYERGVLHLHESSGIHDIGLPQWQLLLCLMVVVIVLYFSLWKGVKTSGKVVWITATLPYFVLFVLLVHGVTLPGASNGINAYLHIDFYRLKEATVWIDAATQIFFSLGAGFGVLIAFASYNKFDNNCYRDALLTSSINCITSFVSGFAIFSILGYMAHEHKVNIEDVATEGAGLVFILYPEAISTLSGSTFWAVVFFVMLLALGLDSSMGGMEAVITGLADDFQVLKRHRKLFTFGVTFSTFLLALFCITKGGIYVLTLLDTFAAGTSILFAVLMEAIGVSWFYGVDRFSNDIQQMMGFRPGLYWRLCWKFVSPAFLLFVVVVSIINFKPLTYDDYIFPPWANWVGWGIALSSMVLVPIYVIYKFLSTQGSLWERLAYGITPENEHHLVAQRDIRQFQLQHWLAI
dopamine transporter, sequence (Q01959 whole entry): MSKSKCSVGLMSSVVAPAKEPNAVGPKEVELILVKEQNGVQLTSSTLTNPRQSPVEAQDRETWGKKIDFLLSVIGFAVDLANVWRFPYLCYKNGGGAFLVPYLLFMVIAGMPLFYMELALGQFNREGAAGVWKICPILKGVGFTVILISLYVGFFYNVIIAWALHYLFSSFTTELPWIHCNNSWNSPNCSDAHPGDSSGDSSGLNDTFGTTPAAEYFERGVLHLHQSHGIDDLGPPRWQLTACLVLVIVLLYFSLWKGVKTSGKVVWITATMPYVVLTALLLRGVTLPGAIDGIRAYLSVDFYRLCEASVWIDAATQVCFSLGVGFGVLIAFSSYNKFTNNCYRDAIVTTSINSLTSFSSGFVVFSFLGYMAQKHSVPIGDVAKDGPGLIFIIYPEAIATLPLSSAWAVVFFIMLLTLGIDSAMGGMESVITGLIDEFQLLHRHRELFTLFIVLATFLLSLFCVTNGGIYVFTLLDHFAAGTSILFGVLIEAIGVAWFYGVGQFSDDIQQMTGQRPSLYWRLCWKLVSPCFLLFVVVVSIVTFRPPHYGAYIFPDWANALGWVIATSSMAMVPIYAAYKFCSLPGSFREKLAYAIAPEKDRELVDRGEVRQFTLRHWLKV

N[C@@]1(c2ccccc2Cl)CCC[C@@H](O)C1=O [2R,6R-hydroxynorketamine, 2R,6R-2-(2-Chlorophenyl)-2-(amino)-6-hydroxycyclohexanone]
pKa [1]: 6.51+/−0.02 | % Inhibition of Control Specific Binding (5-HT1B): −2% | % of Control Specific Binding (5-HT1B): 102.7% | binding to 5HT1B receptor subtype (in words) (5-HT1B): does not bind | % Inhibition of Control Specific Binding (5-HT2B): 5% | % of Control Specific Binding (5-HT2B): 100.9% | binding to 5HT2B receptor subtype (in words) (5-HT2B): does not bind | % Inhibition of Control Specific Binding [2]: −16% | % of Control Specific Binding [2]: 117.6% | % Inhibition of Control Specific Binding (dopamine transporter): 11% | % of Control Specific Binding (dopamine transporter): 87.2% | % Inhibition of Control Specific Binding (5-HT1, Non-Selective): −9% | % of Control Specific Binding (5-HT1, Non-Selective): 105.4% | binding to 5HT1 receptors (in words) (5-HT1, Non-Selective): does not bind | % Inhibition of Control Specific Binding (MAO-B): −1% | % of Control Specific Binding (MAO-B): 100.4% | inhibition of CYP2C8 (in words) (CYP2C8): did not inhibit | % Inhibition (CYP2C8; 0.4 μM): 5.63% | % Inhibition (CYP2C8; 1 μM): 4.91% | % Inhibition (CYP2C8; 4 μM): 12.5% | % Inhibition (CYP2C8; 10 μM): 8.33% | % Inhibition (CYP2C8; 40 μM): 8.35% | % Inhibition (CYP2C8; 100 μM): 2.08% | inhibition of CYP2B6 (in words) (CYP2B6): did not inhibit | % Inhibition (CYP2B6; 0.4 μM): 6.03% | % Inhibition (CYP2B6; 1 μM): 10.1% | % Inhibition (CYP2B6; 4 μM): 10.6% | % Inhibition (CYP2B6; 10 μM): 14.4% | % Inhibition (CYP2B6; 40 μM): 14.8% | % Inhibition (CYP2B6; 100 μM): 16.7% | % Inhibition (CYP3A4; 0.4 μM): 1.62% | % Inhibition (CYP3A4; 1 μM): −0.509% | % Inhibition (CYP3A4; 4 μM): 7.04% | % Inhibition (CYP3A4; 10 μM): 12.4% | % Inhibition (CYP3A4; 40 μM): 35.2% | % Inhibition (CYP3A4; 100 μM): 53.4% | IC50 (CYP3A4; substrate testosterone): 81 µM | metabolic route (in words) (Metabolite profiling): does not undergo phase I metabolism by CYP enzymes, but is glucuronidated | free (unbound) concentration producing pharmacodynamics activity in the brain, sufficient to increase fEPSPs [3]: approximately 10 μM | CLint [4]: 55.2 μL/min/10^6 cells | t1/2 [4]: 25.1 min | hepatic clearance in humans (in words) [5]: does not undergo hepatic clearance
